One series concerns RAW264.7 cells. The experiment in a line: CCK-8 cell viability / cytotoxicity. It counts as cell-based, mouse. Particulars: 24 h. The protocol: RAW264.7 cell culture: mouse mononuclear macrophages (RAW264.7, ATCC) are cultured in a complete medium containing 10% fetal bovine serum (FBS), 1% double antibodies (penicillin and streptomycin), and 89% DMEM at 37° C. and 5% CO2. In this experiment, RAW264.7 cells from passages 3 to 8 are used for related test. RAW264.7 cells in the logarithmic growth phase were inoculated into a 96-well plate and the cell density was adjusted to 5×10^3 cells/well. After cultured for 24 h, the cells were stably adhered to the wall. The original complete medium was removed and different concentrations of Tan (5, 10, 20, 40, 80, 160, 320 μM) were added to allow treatment with or without LPS (100 ng/ml) for 24 h. Then, 10 μL of CCK-8 solution was added to each well and incubated at 37° C. for 1 h. The OD value of each sample at 450 nm was detected by a microplate reader, and the cell viability was calculated.

The test system of another series is TNF-α. Description: ELISA of LPS-induced TNF-α secretion in RAW264.7 cells. It counts as cell-based, mouse. The protocol:
(§1) RAW264.7 cell culture: mouse mononuclear macrophages (RAW264.7, ATCC) are cultured in a complete medium containing 10% fetal bovine serum (FBS), 1% double antibodies (penicillin and streptomycin), and 89% DMEM at 37° C. and 5% CO2. In this experiment, RAW264.7 cells from passages 3 to 8 are used for related test.
(§2) LPS (100 ng/ml) is added for stimulation, with or without Tan, and the cell supernatant is collected to detect the contents of NO, IL-23, IL-17A, TNF-α, and IL-6 in the cell supernatant. The cell lysate is collected and the protein expressions (STAT3, p-STAT3 (Ser727), and p-STAT3 (Tyr705)) are detected by Western blot. Total cell RNA is extracted and real-time fluorescence quantitative polymerase chain reaction (PCR) is conducted to detect the expression levels of IL-23, IL-17A, TNF-α, and IL-6 mRNA.
RAW264.7 cells in the logarithmic growth phase were inoculated into a 6-well plate and the cell density was adjusted to 5.0×10^5 cells/well. After culturing for 24 h, the cells were stably adhered to the plate. The original medium was removed and different concentrations (5, 10, 20, 40 μM) of Tan were added to allow pretreatment for 1 h. […] The OD450 nm value of the cell supernatant was detected according to the instructions of the TNF-α and IL-6 ELISA kits, and the content of pro-inflammatory factors (TNF-α and IL-6) in the cell supernatant was calculated.
(In general: ELISA stands for enzyme-linked immunosorbent assay.)

The test system of another series is TNF-α mRNA. Description: Real-time fluorescence quantitative PCR, LPS-induced TNF-α mRNA in RAW264.7 cells. It counts as cell-based, mouse. The protocol:
as §1, §2
(§3) RAW264.7 cells were inoculated into 6-well plate and the cell density was adjusted to 5.0×10^6 cells/well. […] The fluorescence intensity of each sample was detected according to the instructions of the real-time fluorescence quantitative PCR kit and specific primers (Table 1) (cycle conditions: enzyme activation 95° C. for 3 min, 1 cycle; denaturation 95° C. for 15 s, annealing/extension 60° C. for 1 min, 40 cycles). The mRNA expression level of each group was normalized with the GAPDH expression level, and the relative expression of mRNA was calculated using the 2^−ΔΔCt method.

The next series has as its system IL-6 mRNA. Description: Real-time fluorescence quantitative PCR, LPS-induced IL-6 mRNA in RAW264.7 cells. It counts as cell-based, mouse. Here is the method:
as §1, §2, §3

The subject of a further series is PCNA. Description: Immunohistochemistry of PCNA in dorsal skin of IMQ-induced psoriasis mice. It counts as in vivo, Balb/c mice. To be noted: preventive and therapeutic administration groups; dose-dependent. Here is the method:
Balb/c mice (female, 6-8 weeks, 20+2 g), with certificate number [SCXK (Xiang) 2021-0002], were purchased from Hunan SJA Laboratory Animal (Changsha, China). All mice were housed in an specific pathogen free (SPF)-grade animal room with a 12 h light/12 h dark cycle, and experiments were started after the mice were acclimated for one week. Next, 96 mice were randomly divided into 12 groups (8 mice/group), including Control group, Control solvent (white vaseline) group, IMQ group, IMQ solvent (white vaseline) group, preventive administration of positive medicament Clo group (IMQ+Clo 55 mg), therapeutic administration of positive medicament group (IMQ+Clo (A) 55 mg), preventive administration of Tan low-dose group (IMQ+Tan 40 μg/cm^2), medium-dose group (IMQ+Tan160 μg/cm^2), and high-dose group (IMQ+Tan 640 μg/cm^2), and therapeutic administration of Tan low-dose group (IMQ+Tan (A) 40 μg/cm^2), medium-dose group (IMQ+Tan (A) 160 μg/cm^2), and high-dose group (IMQ+Tan (A) 640 μg/cm^2). After the mice were anesthetized, a 2 cm×3 cm area on the back was selected for hair removal. Modeling began 48 h after hair removal, and all modeling mice were applied with 65 mg (55 mg on the back and 5 mg on each ear) of IMQ cream every morning for 10 d. […]

The mark [1] stands for this setting: 5-40 μM, 24 h, vs LPS, P<0.001, dose-dependent.

This is an account of results in patent publication US20250255845A1, “USE OF INTERLEUKIN (IL)-17A INHIBITOR IN PREPARATION OF MEDICAMENT FOR TREATING INFLAMMATORY DISEASE” (Xiangnan University, priority 2024, published 2025).

On to `COc1ccc(-c2cc(=O)c3c(OC)c(OC)c(OC)c(OC)c3o2)cc1` [Tan, tangeretin], for which the “toxicity to RAW264.7 cells (cell viability)” value in the series with RAW264.7 cells (0-40 μM, P>0.05) was “did not produce significant toxicity”. Moreover, the “cell viability of RAW264.7 cells” value in the series with RAW264.7 cells (Tan concentration higher than 40 μM, P<0.05) was “decreased”. Besides, the “inhibitory effect on TNF-α secretion compared with positive control Clo” value in the series with TNF-α (40 μM) is given as “comparable to that of the positive control”. The “TNF-α level in the cell supernatant” value in the series on TNF-α (5-40 μM, 24 h, vs LPS group, P<0.001, dose-dependent) is listed as “significantly decreased”. The “inhibitory effect on TNF-α mRNA compared with positive control Clo” value with TNF-α mRNA (40 μM) was “comparable to that of the positive control Clo”. Besides, the “relative expression level of TNF-α mRNA” value in the series on TNF-α mRNA (setting [1]) is “significantly decreased”. In addition, in the series on IL-6 mRNA (40 μM), the “inhibitory effect on IL-6 mRNA compared with positive control Clo” value is on record as “comparable to that of the positive control Clo”. For the same compound, the “relative expression level of IL-6 mRNA” value in the series on IL-6 mRNA (setting [1]) is reported as “significantly decreased”. Besides, the “expression level of PCNA in the dorsal skin” value in the series on PCNA is listed as “significantly reduced”.
